From patent publication US20100092456A1, “METHODS OF TREATMENT” (priority 2006, published 2010) come the findings set out here.

Assay [1] concerns ING2. Description: Western blot of endogenous ING2 associated with the CEF of MEL cells. It is filed as cell-based, Murine. The note with it: differentiated MEL cells; H2O2 500 μM, 15 minutes. The procedure:
FIG. 4. A) Exponentially growing MEL cells were irradiated with either 200 J/m of UV light or 10 Gy of gamma radiation. After 30 minutes the CEF was isolated and the subjected to SDS-PAGE followed by transfer of the separated proteins to a nitrocellulose membrane. Western blotting for endogenous ING2 and histone 4 proteins was performed. Representative western blots are shown. B) Exponentially growing MEL cells were incubated in the absence or presence of N-acetyl cysteine (NAC) (5 mM) for 4 hours prior to a control irradiation or exposed to 200 J/m of UV light before the isolation of the CEF. Differentiated MEL cells were incubated in the absence or presence of H2O2 (500 μM) for 15 minutes prior to the isolation of the CEF. Proteins in the CEF were subjected to SDS-PAGE followed by transfer to a nitrocellulose membrane. Western blotting for endogenous ING2 and histone 4 proteins was performed. Representative western blots are shown. C) MEL cells were preincubated with either vehicle, wortmannin (200 nM and 5 μM) or curcumin (100 μM) were irradiated with 200 J/m of UV light. After 30 minutes the CEF was isolated and proteins were subjected to SDS-PAGE followed by transfer to a nitrocellulose membrane. Western blotting for endogenous ING2 and histone 4 proteins was performed. Representative western blots are shown. D) The CEF from transiently transfected MEL cells with either pSuper or pSuper-IIβRNAi was prepared. Proteins in the CEF were subjected to SDS-PAGE followed by transfer to a nitrocellulose membrane. […] Proteins were analysed by standard western blotting procedures employing the following antibodies: anti-tubulin and anti-flag (both from Sigma), anti-actin (Chemicon International), anti-histone 4 (Upstate Biotechnology), anti-phospho p54, anti-phospho p46, anti-phospho p38, total p54, total p46 and total p38 (all from Cell Signalling Technology) anti-ING2, anti EGFP (Clontech), anti-type II β PIP kinase, anti-GST and anti-myc (both generated in house).

Assay [2] has as its target T1, PIP 5-K (Mus musculus, UniProt P70181).
T1 construct: expressed in transfected cells; host or cells: HeLa cells
Description: In vitro activity of recombinant PIP 5-K (radioactive ATP, TLC). It is filed as biochemical. The note with it: apoptotic concentrations of H2O2; Cysteine 175 to serine mutant is not sensitive. The procedure:
Panel B: Recombinant wild type PIP 5-K and a point mutation of PIP 5-K—(cysteine 175 altered to a serine residue) were both treated with H2O2 and enzyme activity was assayed in vitro by measuring the amount of product that is produced after incubation with substrate and radioactive ATP. The products were then analysed on TLC plate using phosphoimager.
Recombinant wild type PIP 5-K and a point mutation of PIP 5-K-(cysteine 175 altered to a serine residue) were both treated with H2O2 and enzyme activity was assayed in vitro by measuring the amount of product that is produced after incubation with substrate and radioactive ATP. The products were then analysed on TLC plate using phosphoimager. […] (FIG. 12, panel B).

T1 sequence (P70181 whole entry): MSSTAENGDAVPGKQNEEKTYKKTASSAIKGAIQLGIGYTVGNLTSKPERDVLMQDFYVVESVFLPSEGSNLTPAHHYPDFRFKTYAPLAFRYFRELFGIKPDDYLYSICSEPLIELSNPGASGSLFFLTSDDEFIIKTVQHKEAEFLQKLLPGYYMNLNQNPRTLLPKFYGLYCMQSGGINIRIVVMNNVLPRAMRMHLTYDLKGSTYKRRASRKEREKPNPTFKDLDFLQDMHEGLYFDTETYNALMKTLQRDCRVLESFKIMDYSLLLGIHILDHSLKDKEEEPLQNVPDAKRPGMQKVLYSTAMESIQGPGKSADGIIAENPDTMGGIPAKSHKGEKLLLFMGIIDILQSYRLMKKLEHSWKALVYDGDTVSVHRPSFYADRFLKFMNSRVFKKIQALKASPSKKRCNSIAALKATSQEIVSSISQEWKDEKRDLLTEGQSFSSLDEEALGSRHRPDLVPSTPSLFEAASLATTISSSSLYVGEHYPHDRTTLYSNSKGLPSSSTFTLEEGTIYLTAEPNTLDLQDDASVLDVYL

As to `OO` [H2O2], the “ING2 translocation to the CEF” value in assay [1] is given as “stimulated”. Besides, the “activity of recombinant wild type PIP 5-K after treatment” value in assay [2] is on record as “sensitive”.
